Blank lines part the entries; values can stand above or below the compound they belong to. Active and inactive are the calls of the source. The calls are words filed in the database; no cut-off is given here.
Legend:
B16 [1] = assay: Induction of apoptosis is in mouse B16 cells assessed as necrotic cells at 15 uM incubated for 48 hrs by annexin-V/propidium iodide staining based flow cytometry analysis (reference value: 0.01 %); assay type: functional
[2] = biological target: T1, Phosphatidylinositol 3-kinase (Mus musculus) (UniProt P26450+P42337); assay: Inhibition of PI3K in mouse B16 cells assessed as reduction in MCL-1 protein expression at 10 to 15 uM incubated for 24 hrs irradiated with 365 nm uv light for 4 min by Western blot analysis; assay type: cell-based; details: dose 10-15 µM
T1 sequence (P26450 whole entry, looked up): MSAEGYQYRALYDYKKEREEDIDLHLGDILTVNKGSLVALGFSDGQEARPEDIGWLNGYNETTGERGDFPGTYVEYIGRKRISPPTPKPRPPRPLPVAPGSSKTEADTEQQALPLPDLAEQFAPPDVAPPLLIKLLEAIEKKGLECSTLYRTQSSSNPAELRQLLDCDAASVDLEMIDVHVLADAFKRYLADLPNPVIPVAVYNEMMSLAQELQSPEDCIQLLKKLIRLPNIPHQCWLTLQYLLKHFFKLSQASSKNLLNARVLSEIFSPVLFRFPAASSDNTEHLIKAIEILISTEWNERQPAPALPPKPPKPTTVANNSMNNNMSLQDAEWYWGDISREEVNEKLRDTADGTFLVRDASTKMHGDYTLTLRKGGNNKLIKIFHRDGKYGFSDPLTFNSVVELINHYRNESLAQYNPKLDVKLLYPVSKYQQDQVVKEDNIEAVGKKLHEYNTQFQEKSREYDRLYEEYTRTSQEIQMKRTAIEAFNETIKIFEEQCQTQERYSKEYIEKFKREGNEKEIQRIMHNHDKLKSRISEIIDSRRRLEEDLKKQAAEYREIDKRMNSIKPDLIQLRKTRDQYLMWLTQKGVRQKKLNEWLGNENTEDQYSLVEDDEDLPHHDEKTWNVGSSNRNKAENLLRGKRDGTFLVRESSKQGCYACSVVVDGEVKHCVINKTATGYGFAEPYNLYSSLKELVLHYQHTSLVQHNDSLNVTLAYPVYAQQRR
T1 sequence (P42337 whole entry, looked up): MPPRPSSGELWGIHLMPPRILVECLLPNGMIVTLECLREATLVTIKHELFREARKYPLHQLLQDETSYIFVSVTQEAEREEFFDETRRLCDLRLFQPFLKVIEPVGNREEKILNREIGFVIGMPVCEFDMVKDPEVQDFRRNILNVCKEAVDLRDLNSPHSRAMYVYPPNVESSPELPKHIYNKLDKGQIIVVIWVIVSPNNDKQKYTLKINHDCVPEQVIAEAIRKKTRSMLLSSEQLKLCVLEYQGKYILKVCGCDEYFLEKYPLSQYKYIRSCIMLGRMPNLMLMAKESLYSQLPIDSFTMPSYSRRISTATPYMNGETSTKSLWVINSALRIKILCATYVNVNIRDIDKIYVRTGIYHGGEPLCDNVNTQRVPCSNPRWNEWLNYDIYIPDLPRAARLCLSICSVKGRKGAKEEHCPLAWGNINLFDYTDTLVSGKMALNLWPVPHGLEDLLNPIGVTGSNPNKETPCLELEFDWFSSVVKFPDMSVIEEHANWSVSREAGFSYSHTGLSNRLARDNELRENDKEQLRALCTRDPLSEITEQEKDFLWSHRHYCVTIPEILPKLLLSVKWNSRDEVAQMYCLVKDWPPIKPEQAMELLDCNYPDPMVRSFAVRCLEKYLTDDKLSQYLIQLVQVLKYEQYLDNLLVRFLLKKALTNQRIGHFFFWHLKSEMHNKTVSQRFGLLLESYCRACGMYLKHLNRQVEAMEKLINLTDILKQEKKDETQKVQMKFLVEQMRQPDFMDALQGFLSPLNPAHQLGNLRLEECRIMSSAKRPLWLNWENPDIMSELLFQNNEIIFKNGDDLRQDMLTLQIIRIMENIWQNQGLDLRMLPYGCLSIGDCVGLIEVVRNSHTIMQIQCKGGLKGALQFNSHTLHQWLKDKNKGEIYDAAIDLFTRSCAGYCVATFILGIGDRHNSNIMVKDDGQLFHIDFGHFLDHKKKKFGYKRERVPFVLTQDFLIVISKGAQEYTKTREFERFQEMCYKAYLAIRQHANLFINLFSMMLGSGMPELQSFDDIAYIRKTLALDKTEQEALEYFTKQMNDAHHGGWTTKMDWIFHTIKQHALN

B16 [3] = assay: Induction of apoptosis in mouse B16 cells assessed as early apoptotic cells at 15 uM incubated for 48 hrs irradiated with 365 nm for 4 mins by annexin-V/propidium iodide staining based flow cytometry analysis (reference value: 2.38 %); assay type: functional
[4] = Photorelease activity in PBS assessed as N-(2-chloro-5-(1H-pyrazolo[3,4-b]pyridin-5-yl)pyridin-3-yl) benzene sulfonamide release irradiated with 254 nm incubated for 12 mins by HPLC analysis
[5] = biological target: T1, Phosphatidylinositol 3-kinase (Mus musculus); assay: Inhibition of PI3K in mouse B16 cells assessed as reduction in phosphorylation of AKT at T308 residue incubated for 24 hrs by Western blot analysis; assay type: cell-based; details: dose 10-15 µM
[6] = biological target: T1, Phosphatidylinositol 3-kinase (Mus musculus); assay: Inhibition of PI3K in mouse B16 cells assessed as reduction in phosphorylation of AKT at […] residue incubated for 24 hrs by Western blot analysis; assay type: cell-based; details: dose 10-15 µM
B16 [7] = assay: Induction of apoptosis in mouse B16 cells assessed as necrotic cells at 10 uM incubated for 48 hrs irradiated with 365 nm for 4 mins by annexin-V/propidium iodide staining based flow cytometry analysis (reference value: 0.07 %); assay type: functional
B16 [8] = assay: Antiproliferative activity against mouse B16 cells assessed as reduction in cell viability incubated for 48 hrs irradiated with 365 nm uv light for 4 min by CCK-8 assay; assay type: functional, cell-based; details: B16, light or radiation study
B16 [9] = assay: Induction of apoptosis in mouse B16 cells assessed as viable at 15 uM incubated for 48 hrs by annexin-V/propidium iodide staining based flow cytometry analysis (reference value: 97.4 %); assay type: functional
B16 [10] = assay: Induction of apoptosis in mouse B16 cells assessed as viable at 10 uM incubated for 48 hrs by annexin-V/propidium iodide staining based flow cytometry analysis (reference value: 97.4 %); assay type: functional
B16 [11] = assay: Induction of apoptosis in mouse B16 cells assessed as late apoptotic cells at 15 uM incubated for 48 hrs irradiated with 365 nm for 4 mins by annexin-V/propidium iodide staining based flow cytometry analysis (reference value: 0.84 %); assay type: functional
[12] = biological target: T1, Phosphatidylinositol 3-kinase (Mus musculus); assay: Inhibition of PI3K in mouse B16 cells assessed as reduction in phosphorylation of AKT at […] residue at 10 to 15 uM incubated for 24 hrs irradiated with 365 nm uv light for 4 min by Western blot analysis; assay type: cell-based; details: dose 10-15 µM
B16 [13] = assay: Induction of apoptosis in mouse B16 cells assessed as increase in apoptotic cells at 10 uM incubated for 48 hrs by annexin-V/propidium iodide staining based flow cytometry analysis; assay type: functional
[14] = Retention time of the compound under 365 nm UV light irradiation by HPLC analysis; assay type: physicochemical
B16 [15] = assay: Induction of apoptosis in mouse B16 cells assessed as early apoptotic cells at 15 uM incubated for 48 hrs by annexin-V/propidium iodide staining based flow cytometry analysis (reference value: 1.39 %); assay type: functional
B16 [16] = assay: Induction of apoptosis in mouse B16 cells assessed as viable cells at 15 uM incubated for 48 hrs irradiated with 365 nm for 4 mins by annexin-V/propidium iodide staining based flow cytometry analysis (reference value: 96.7 %); assay type: functional; details: B16, light or radiation study, read-out: Activity
B16 [17] = assay: Induction of cell cycle arrest in mouse B16 cells assessed as cells accumulation at G2/M phase at 10 to 15 uM incubated for 24 hrs by flow cytometry analysis; assay type: functional, cell-based; details: dose 10-15 µM
B16 [18] = assay: Induction of cell cycle arrest in mouse B16 cells assessed as cells accumulation at G2/M phase at 10 to 15 uM incubated for 24 hrs irradiated with 365 nm for 4 mins by flow cytometry analysis; assay type: functional, cell-based; details: dose 10-15 µM
[19] = biological target: Phosphatidylinositol 4,5-bisphosphate 3-kinase catalytic subunit beta isoform (Homo sapiens, UniProt P42338); assay: Inhibition of PI3Kbeta (unknown origin)
Sequence of Phosphatidylinositol 4,5-bisphosphate 3-kinase catalytic subunit beta isoform (P42338 whole entry, canonical isoform): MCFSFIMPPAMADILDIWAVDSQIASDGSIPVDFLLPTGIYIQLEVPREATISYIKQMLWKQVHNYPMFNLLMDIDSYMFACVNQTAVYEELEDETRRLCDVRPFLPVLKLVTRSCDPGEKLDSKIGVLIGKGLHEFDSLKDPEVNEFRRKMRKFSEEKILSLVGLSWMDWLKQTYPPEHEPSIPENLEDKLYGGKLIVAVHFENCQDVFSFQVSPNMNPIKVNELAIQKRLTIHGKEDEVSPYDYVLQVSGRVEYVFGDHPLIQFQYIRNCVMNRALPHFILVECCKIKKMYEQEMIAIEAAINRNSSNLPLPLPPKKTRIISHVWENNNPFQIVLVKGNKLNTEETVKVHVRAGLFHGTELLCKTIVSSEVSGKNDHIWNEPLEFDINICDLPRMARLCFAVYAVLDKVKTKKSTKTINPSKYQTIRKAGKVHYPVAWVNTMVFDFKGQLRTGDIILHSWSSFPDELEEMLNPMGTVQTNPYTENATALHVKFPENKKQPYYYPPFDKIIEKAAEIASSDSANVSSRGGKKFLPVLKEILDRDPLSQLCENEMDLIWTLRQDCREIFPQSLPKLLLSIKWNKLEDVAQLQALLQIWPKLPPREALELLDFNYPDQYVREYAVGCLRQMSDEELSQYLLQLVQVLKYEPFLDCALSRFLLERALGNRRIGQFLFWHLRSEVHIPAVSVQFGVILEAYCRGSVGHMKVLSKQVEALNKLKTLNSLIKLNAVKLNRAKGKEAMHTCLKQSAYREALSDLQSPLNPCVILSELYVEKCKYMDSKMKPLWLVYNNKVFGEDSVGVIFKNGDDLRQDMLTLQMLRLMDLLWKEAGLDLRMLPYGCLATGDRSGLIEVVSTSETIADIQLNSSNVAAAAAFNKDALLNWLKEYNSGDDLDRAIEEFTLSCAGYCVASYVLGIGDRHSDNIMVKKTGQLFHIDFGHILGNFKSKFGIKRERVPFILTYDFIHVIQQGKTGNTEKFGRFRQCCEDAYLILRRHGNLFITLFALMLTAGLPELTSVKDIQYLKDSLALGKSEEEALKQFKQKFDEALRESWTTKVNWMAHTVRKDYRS

B16 [20] = assay: Induction of apoptosis is in mouse B16 cells assessed as late apoptotic cells at 10 uM incubated for 48 hrs by annexin-V/propidium iodide staining based flow cytometry analysis (reference value: 1.15 %); assay type: functional
B16 [21] = assay: Induction of apoptosis in mouse B16 cells assessed as early apoptotic cells at 10 uM incubated for 48 hrs irradiated with 365 nm for 4 mins by annexin-V/propidium iodide staining based flow cytometry analysis (reference value: 2.38 %); assay type: functional
B16 [22] = assay: Induction of apoptosis in mouse B16 cells assessed as necrotic cells at 15 uM incubated for 48 hrs irradiated with 365 nm for 4 mins by annexin-V/propidium iodide staining based flow cytometry analysis (reference value: 0.07 %); assay type: functional
B16 [23] = assay: Induction of apoptosis in mouse B16 cells assessed as late apoptotic cells at 10 uM incubated for 48 hrs irradiated with 365 nm for 4 mins by annexin-V/propidium iodide staining based flow cytometry analysis (reference value: 0.84 %); assay type: functional
[24] = biological target: T2, Phosphatidylinositol 4,5-bisphosphate 3-kinase catalytic subunit delta isoform (Homo sapiens, UniProt O00329); assay: Inhibition of PI3Kdelta (unknown origin)
T2 sequence (O00329 whole entry): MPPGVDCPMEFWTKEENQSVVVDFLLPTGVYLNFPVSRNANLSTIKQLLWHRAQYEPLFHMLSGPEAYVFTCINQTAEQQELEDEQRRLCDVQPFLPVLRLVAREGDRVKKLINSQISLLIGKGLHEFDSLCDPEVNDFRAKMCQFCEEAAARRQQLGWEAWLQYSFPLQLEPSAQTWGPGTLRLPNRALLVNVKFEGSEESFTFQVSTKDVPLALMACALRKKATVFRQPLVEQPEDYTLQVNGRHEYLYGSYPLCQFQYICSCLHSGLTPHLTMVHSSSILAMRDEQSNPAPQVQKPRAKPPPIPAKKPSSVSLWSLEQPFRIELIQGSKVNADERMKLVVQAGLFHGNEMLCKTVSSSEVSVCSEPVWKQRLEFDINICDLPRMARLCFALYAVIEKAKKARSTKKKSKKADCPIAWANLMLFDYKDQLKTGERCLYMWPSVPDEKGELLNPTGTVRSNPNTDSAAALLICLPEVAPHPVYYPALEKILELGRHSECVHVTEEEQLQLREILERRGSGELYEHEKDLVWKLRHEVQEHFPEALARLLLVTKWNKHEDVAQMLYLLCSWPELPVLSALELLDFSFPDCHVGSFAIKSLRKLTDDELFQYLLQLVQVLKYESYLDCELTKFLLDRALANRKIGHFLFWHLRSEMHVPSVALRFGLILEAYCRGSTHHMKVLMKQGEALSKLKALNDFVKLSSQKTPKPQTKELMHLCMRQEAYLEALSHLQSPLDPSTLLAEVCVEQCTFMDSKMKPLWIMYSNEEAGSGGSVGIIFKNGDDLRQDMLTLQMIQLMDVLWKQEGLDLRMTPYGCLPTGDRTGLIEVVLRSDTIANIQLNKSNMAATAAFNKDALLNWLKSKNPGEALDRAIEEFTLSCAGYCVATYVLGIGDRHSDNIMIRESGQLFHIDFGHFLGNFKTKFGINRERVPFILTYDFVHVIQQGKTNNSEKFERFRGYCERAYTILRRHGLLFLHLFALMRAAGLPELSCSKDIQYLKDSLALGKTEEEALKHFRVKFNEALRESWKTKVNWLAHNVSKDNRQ

B16 [25] = assay: Induction of apoptosis is in mouse B16 cells assessed as necrotic cells at 10 uM incubated for 48 hrs by annexin-V/propidium iodide staining based flow cytometry analysis (reference value: 0.01 %); assay type: functional
[26] = biological target: Phosphatidylinositol 4,5-bisphosphate 3-kinase catalytic subunit gamma isoform (Homo sapiens, UniProt P48736); assay: Inhibition of PI3Kgamma (unknown origin)
Sequence of Phosphatidylinositol 4,5-bisphosphate 3-kinase catalytic subunit gamma isoform (P48736 whole entry, canonical isoform): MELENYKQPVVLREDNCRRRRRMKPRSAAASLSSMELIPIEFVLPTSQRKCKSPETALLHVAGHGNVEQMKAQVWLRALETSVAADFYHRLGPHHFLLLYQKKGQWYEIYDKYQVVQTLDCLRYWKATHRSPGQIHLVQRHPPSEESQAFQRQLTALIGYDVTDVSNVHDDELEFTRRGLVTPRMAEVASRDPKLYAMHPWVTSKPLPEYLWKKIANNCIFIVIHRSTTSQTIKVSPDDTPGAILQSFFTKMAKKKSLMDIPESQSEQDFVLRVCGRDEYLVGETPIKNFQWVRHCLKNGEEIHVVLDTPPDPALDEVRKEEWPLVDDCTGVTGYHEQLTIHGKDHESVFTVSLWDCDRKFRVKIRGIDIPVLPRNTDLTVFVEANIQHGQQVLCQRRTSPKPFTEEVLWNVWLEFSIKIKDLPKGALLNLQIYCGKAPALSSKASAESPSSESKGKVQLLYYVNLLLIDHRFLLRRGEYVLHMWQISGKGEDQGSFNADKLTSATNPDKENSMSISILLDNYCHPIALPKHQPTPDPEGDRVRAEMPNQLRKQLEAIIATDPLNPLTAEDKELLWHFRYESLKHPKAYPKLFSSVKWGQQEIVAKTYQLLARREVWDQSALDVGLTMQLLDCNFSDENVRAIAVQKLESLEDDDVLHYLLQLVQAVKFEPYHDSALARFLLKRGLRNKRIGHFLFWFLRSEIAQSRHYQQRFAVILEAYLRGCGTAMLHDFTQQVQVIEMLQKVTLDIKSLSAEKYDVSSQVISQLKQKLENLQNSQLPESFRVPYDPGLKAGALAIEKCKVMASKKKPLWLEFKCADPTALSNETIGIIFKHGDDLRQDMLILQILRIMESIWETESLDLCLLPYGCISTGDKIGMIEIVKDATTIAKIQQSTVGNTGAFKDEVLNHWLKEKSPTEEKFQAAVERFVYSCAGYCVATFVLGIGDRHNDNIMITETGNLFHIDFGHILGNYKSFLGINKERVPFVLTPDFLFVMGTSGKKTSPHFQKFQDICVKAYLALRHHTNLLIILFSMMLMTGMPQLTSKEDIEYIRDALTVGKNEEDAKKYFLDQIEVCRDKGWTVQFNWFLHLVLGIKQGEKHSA

[27] = biological target: Phosphatidylinositol 4,5-bisphosphate 3-kinase catalytic subunit alpha isoform (Homo sapiens, UniProt P42336); assay: Inhibition of PI3Kalpha (unknown origin)
Sequence of Phosphatidylinositol 4,5-bisphosphate 3-kinase catalytic subunit alpha isoform (P42336 whole entry, canonical isoform): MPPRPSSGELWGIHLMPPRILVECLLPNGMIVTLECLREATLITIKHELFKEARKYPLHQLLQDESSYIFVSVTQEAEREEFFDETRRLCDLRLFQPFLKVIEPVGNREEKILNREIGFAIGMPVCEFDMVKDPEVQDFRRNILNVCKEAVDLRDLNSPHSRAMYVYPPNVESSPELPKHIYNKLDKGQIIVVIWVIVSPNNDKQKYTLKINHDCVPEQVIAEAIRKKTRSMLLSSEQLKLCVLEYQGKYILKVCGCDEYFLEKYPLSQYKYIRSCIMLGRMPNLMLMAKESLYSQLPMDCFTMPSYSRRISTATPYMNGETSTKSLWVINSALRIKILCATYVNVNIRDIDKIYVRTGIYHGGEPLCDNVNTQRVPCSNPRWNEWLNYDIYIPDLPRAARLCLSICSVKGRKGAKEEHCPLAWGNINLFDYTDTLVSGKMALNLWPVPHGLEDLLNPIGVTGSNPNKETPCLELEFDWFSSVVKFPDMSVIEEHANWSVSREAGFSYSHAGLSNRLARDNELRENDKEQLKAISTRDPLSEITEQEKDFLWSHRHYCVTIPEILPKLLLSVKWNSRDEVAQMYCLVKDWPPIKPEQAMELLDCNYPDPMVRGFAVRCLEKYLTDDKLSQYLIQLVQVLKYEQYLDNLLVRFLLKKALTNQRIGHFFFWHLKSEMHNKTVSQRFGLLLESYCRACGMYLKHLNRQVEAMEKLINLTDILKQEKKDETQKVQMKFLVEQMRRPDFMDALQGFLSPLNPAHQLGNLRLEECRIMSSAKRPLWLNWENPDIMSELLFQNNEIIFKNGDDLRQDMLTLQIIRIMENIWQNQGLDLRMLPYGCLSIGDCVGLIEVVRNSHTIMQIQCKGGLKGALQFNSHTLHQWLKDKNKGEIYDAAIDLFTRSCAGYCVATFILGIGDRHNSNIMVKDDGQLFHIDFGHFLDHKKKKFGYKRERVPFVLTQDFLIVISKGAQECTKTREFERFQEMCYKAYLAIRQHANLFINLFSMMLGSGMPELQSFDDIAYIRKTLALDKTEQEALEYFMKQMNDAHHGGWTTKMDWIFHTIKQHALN

[28] = biological target: T1, Phosphatidylinositol 3-kinase (Mus musculus); assay: Inhibition of PI3K in mouse B16 cells assessed as reduction in MCL-1 protein expression incubated for 24 hrs by Western blot analysis; assay type: cell-based; details: dose 10-15 µM
B16 [29] = assay: Induction of apoptosis in mouse B16 cells assessed as viable cells at 10 uM incubated for 48 hrs irradiated with 365 nm for 4 mins by annexin-V/propidium iodide staining based flow cytometry analysis (reference value: 96.7 %); assay type: functional; details: B16, light or radiation study, read-out: Activity
[30] = biological target: T1, Phosphatidylinositol 3-kinase (Mus musculus); assay: Inhibition of PI3K in mouse B16 cells assessed as reduction in phosphorylation of AKT at T308 residue at 10 to 15 uM incubated for 24 hrs irradiated with 365 nm uv light for 4 min by Western blot analysis; assay type: cell-based; details: dose 10-15 µM
B16 [31] = assay: Induction of apoptosis is in mouse B16 cells assessed as late apoptotic cells at 15 uM incubated for 48 hrs by annexin-V/propidium iodide staining based flow cytometry analysis (reference value: 1.15 %); assay type: functional
B16 [32] = assay: Induction of apoptosis in mouse B16 cells assessed as early apoptotic cells at 10 uM incubated for 48 hrs by annexin-V/propidium iodide staining based flow cytometry analysis (reference value: 1.39 %); assay type: functional
[33] = biological target: T1, Phosphatidylinositol 3-kinase (Mus musculus); assay: Inhibition of PI3K in mouse B16 cells assessed as reduction in phosphorylation of AKT at […] residue at 10 to 15 uM incubated for 24 hrs by Western blot analysis; assay type: cell-based; details: dose 10-15 µM
[34] = biological target: T1, Phosphatidylinositol 3-kinase (Mus musculus); assay: Inhibition of PI3K in mouse B16 cells assessed as reduction in MCL-1 protein expression at 10 to 15 uM incubated for 24 hrs by Western blot analysis; assay type: cell-based; details: dose 10-15 µM
[35] = biological target: T1, Phosphatidylinositol 3-kinase (Mus musculus); assay: Inhibition of PI3K in mouse B16 cells assessed as reduction in phosphorylation of AKT at T308 residue at 10 to 15 uM incubated for 24 hrs by Western blot analysis; assay type: cell-based; details: dose 10-15 µM

inhibition [2]: Active
inhibition [5]: Dose-Dependent Effect
inhibition [6]: Dose-Dependent Effect
IC50 (B16 [8]): 8800 nM
inhibition [12]: Active
Retention_time [14]: 10.4 min
IC50 [19]: 83 nM
IC50 [24]: 14 nM
IC50 [26]: 84 nM
IC50 [27]: 43 nM
inhibition [28]: Dose-Dependent Effect
inhibition [30]: Active
SMILES: COc1cc(COC(=O)n2ncc3cc(-c4cnc(Cl)c(NS(=O)(=O)c5ccccc5)c4)cnc32)c([N+](=O)[O-])cc1OC
Activity (B16 [1]): 1.3%
Activity (B16 [3]): 14.4%
Drug metabolism [4]: > 98%
Activity (B16 [7]): 0%
Activity (B16 [9]): 88.1%
Activity (B16 [10]): 95.6%
Activity (B16 [11]): 14.7%
Activity (B16 [13]): <10%
Activity (B16 [15]): 7.13%
viability at 15 µM (B16 [16]): 69.6%
Activity (B16 [17]): Active
Activity (B16 [18]): Active
Activity (B16 [20]): 1.25%
Activity (B16 [21]): 8.04%
Activity (B16 [22]): 1.27%
Activity (B16 [23]): 3.49%
Activity (B16 [25]): 0%
viability at 10 µM (B16 [29]): 88.5%
Activity (B16 [31]): 3.42%
Activity (B16 [32]): 3.16%

inhibition [33]: Active
inhibition [34]: Active
Retention_time [14]: 7.9 min
inhibition [35]: Active
SMILES: O=S(=O)(Nc1cc(-c2cnc3[nH]ncc3c2)cnc1Cl)c1ccccc1
